This is an account of results in EP0073997A1, “Substituted 2-amino-3,4-dihydro-pyridine derivatives, process for their preparation and their use in medicines” (BAYER AG, priority 1981, dated 1983).

The subject of this test is Wistar-Ratten. Description: Cholesterol load test: liver cholesterol after oral cholesterol load. It is filed as in vivo. The note with it: Dosis 10 mg/kg p.o.; given together with cholesterol in 0,75 % tragacanth suspension; liver cholesterol after 24 h. The method, then:
Cholesterol- bzw. Fettbelastungstests wurden an nüchternen männlichen oder weiblichen Wistar-Ratten mit einem Körpergewicht zwischen 130-230 g durchgeführt.
Cholesterol-Belastung: • Cholesterol und die zu prüfende Substanz wurden in 0,75 %iger Traganth-Suspension gleichzeitig oral appliziert. Nach 24 h wurden die Tiere getötet und der Cholesterolgehalt in der Leber bestimmt. Cholesterol wurde nach der Liebermann-Burchard-Methode mit der Testkombination von Boehringer Mannheim bestimmt. Kontrolltiere erhielten ein entsprechendes Volumen Cholesterol-Traganth-Suspension ohne Testsubstanz. Zur Kontrolle des Cholesterol-Anstiegs als Folge der Cholesterol-Belastung wurde einer weiteren Kontrollgruppe Traganth-Suspension ohne Cholesterol oral appliziert.
Take “6-Methyl-2-(4-phenylpiperazino)-4,5-bis(2-pyrrolidinomethylphenyl)-3,4-dihydropyridin [Beispiel 18]”: the “Verminderung des Lebercholesterinanstiegs im Vergleich zur Kontrolle nach oraler Cholesterinbelastung in Prozent” value is 34,1%.

Take `Clc1ccc(C2CC(N3CCN(c4ccccc4)CC3)=NC3=C2c2ccccc2CC3)cc1` (stereo not drawn) [Beispiel 1, 4-(4-Chlorphenyl)-2-(4-phenylpiperazino)-3,4,5,6-tetrahydronaphthalino(a)pyridin]: the “Verminderung des Lebercholesterinanstiegs im Vergleich zur Kontrolle nach oraler Cholesterinbelastung in Prozent” value is 51,7%.

In the case of `Clc1ccc(C2=CC(c3ccc(Cl)cc3)CC(N3CCN(c4ccccc4)CC3)=N2)cc1` (stereo not drawn) [Beispiel 8], the “Verminderung des Lebercholesterinanstiegs im Vergleich zur Kontrolle nach oraler Cholesterinbelastung in Prozent” value was 21,3%.

Consider `CC(=O)OCc1ccc(C2=C(C)N=C(N3CCN(c4ccccc4)CC3)CC2c2ccc(COC(C)=O)cc2)cc1` (stereo not drawn) [Beispiel 9], for which the “Verminderung des Lebercholesterinanstiegs im Vergleich zur Kontrolle nach oraler Cholesterinbelastung in Prozent” value is given as 17,7%.

Regarding `CC1=C(c2cccc(CO)c2)C(c2cccc(CO)c2)CC(N2CCN(c3ccccc3)CC2)=N1` (stereo not drawn) [Beispiel 13], the “Verminderung des Lebercholesterinanstiegs im Vergleich zur Kontrolle nach oraler Cholesterinbelastung in Prozent” value is 37,9%.

On to `CC1=C(c2ccc(N(C)C)cc2)C(c2ccc(CO)cc2)CC(N2CCN(c3ccccc3)CC2)=N1` (stereo not drawn) [Beispiel 16], for which the “Verminderung des Lebercholesterinanstiegs im Vergleich zur Kontrolle nach oraler Cholesterinbelastung in Prozent” value is 36,7%.

Consider `CC1=C(c2ccccc2)C(c2cccc(CN3CCCC3)c2)CC(N2CCN(c3ccccc3)CC2)=N1` (stereo not drawn) [Beispiel 17, 6-Methyl-5-phenyl-2-(4-phenylpiperazino)-4-(3-pyrro-lidinomethylphenyl)-3,4-dihydropyridin], for which the “Verminderung des Lebercholesterinanstiegs im Vergleich zur Kontrolle nach oraler Cholesterinbelastung in Prozent” value is given as 22,9%.

Regarding `CC1=C(c2ccccc2)C(c2cccc(COC(=O)CCCC(=O)O)c2)CC(N2CCN(c3ccccc3)CC2)=N1` (stereo not drawn) [Beispiel 19, 4-(3-(5-Carboxybutyryloxymethyl)-phenyl)-6-methyl-5-phenyl-2-(4-phenylpiperazino)-3,4-dihydropyridin], the “Verminderung des Lebercholesterinanstiegs im Vergleich zur Kontrolle nach oraler Cholesterinbelastung in Prozent” value is on record as 36,3%.

Consider `C=CCC1C(N2CCN(c3ccccc3)CC2)=NC(C)=C(c2ccccc2)C1c1ccccc1` (stereo not drawn) [Beispiel 21], for which the “Verminderung des Lebercholesterinanstiegs im Vergleich zur Kontrolle nach oraler Cholesterinbelastung in Prozent” value is recorded as 34,9%.

Consider `COc1ccc(C2=C(C)N=C(N3CCCC3)C(C)C2c2ccc(OC)cc2)cc1` (stereo not drawn) [Beispiel 25], for which the “Verminderung des Lebercholesterinanstiegs im Vergleich zur Kontrolle nach oraler Cholesterinbelastung in Prozent” value is recorded as 22,6%.

Turning to `CC1=C(c2ccc(N(C)C)cc2)C(c2ccc(Cl)cc2)C(CC(=O)OC(C)(C)C)C(N2CCN(c3ccccc3)CC2)=N1` (stereo not drawn) [Beispiel 29], the “Verminderung des Lebercholesterinanstiegs im Vergleich zur Kontrolle nach oraler Cholesterinbelastung in Prozent” value is given as 12,0%.

As for `CC1=C(c2ccccc2)C(c2ccccc2)C(CO)C(N2CCN(c3ccccc3)CC2)=N1` (stereo not drawn) [Beispiel 34], the “Verminderung des Lebercholesterinanstiegs im Vergleich zur Kontrolle nach oraler Cholesterinbelastung in Prozent” value was 23,9%.
